The values below come from ChEMBL document CHEMBL1687859, “Therapeutic efficacy of halocidin-derived peptide HG1 in a mouse model of surgical wound infection with methicillin-resistant Staphylococcus aureus” (Antimicrob Agents Chemother, 2011).

In general, MIC refers to the lowest concentration that inhibits growth of the organism. A higher MIC goes with a need for much substance.

The test system of data set [1] is Zone of skin. Description: Drug penetration in ethidium bromide-labeled methicillin-resistant Staphylococcus aureus infected ICR mouse skin administered topically after 4 hrs by confocal microscopic analysis. Type of data set: ADME, tissue-based. The conditions noted are these: in vivo, topical_or_ocular.
The test system of data set [2] is Zone of skin. Description: Drug penetration in ICR mouse skin administered topically using plastic cylinder by HPLC analysis. Type of data set: ADME, tissue-based. To be noted: in vivo, topical_or_ocular.
Data set [3] concerns Zone of skin. Description: Drug penetration in ICR mouse skin administered topically using plastic cylinder by fluorescence microscopy. Type of data set: ADME, tissue-based. The conditions noted are these: in vivo, topical_or_ocular.
Data set [4] has as its system Staphylococcus aureus. The data set is described as follows: Antibacterial activity against ethidium bromide-labeled methicillin-resistant Staphylococcus aureus infected in ICR mouse skin administered topically after 4 hrs by confocal microscopic analysis. Type of data set: functional, organism-based.
The subject of data set [5] is Staphylococcus aureus. Description: Antibacterial activity against methicillin-resistant Staphylococcus aureus infected in ICR mouse surgical wound model assessed as reduction of CFU administered topically every 12 hrs for 5 days. Format: functional.
Data set [6] has as its system Staphylococcus aureus. Description: Drug binding to ethidium bromide-labeled methicillin-resistant Staphylococcus aureus infected in ICR mouse skin administered topically after 4 hrs by confocal microscopic analysis. Type of data set: ADME, organism-based. To be noted: in vivo, topical_or_ocular.
For data set [7], the system named is Staphylococcus aureus. The data set is described as follows: Antibacterial activity against methicillin-resistant Staphylococcus aureus. Type of data set: functional.
Data set [8] concerns Zone of skin. The data set is described as follows: Drug penetration in ICR mouse skin administered topically using plastic cylinder by immunoblotting. Type of data set: ADME, tissue-based. To be noted: in vivo, topical_or_ocular. In general terms: In western blotting, separated proteins are transferred to a membrane and probed.

The structures appear in SMILES notation. ≈ marks a conversion by molar mass, not a printed value. Calls of active or inactive are those of the source. No cut-off for these calls is given here. Bridge positions count the residues as written; N and C are the ends. Peptide text beside a SMILES is read from it. I, II: the chains in the order shown.

Take `CC(C)C[C@H](NC(=O)CNC(=O)[C@H](Cc1cnc[nH]1)NC(=O)[C@H](Cc1cnc[nH]1)NC(=O)[C@H](CC(C)C)NC(=O)[C@H](CC(C)C)NC(=O)[C@H](C)NC(=O)[C@H](CC(N)=O)NC(=O)[C@H](CC(C)C)NC(=O)[C@H](Cc1c[nH]c2ccccc12)NC(=O)[C@@H](N)CCCCN)C(=O)N[C@@H](CC(N)=O)C(=O)N[C@@H](CSSC[C@H](NC(=O)[C@H](CC(N)=O)NC(=O)[C@H](CC(C)C)NC(=O)CNC(=O)[C@H](Cc1cnc[nH]1)NC(=O)[C@H](Cc1cnc[nH]1)NC(=O)[C@H](CC(C)C)NC(=O)[C@H](CC(C)C)NC(=O)[C@H](C)NC(=O)[C@H](CC(N)=O)NC(=O)[C@H](CC(C)C)NC(=O)[C@H](Cc1c[nH]c2ccccc12)NC(=O)[C@@H](N)CCCCN)C(=O)N[C@@H](C)C(=O)N[C@@H](CCCCN)C(=O)NCC(=O)N[C@H](C(=O)N[C@@H](CC(C)C)C(=O)N[C@@H](C)C(N)=O)C(C)C)C(=O)N[C@@H](C)C(=O)N[C@@H](CCCCN)C(=O)NCC(=O)N[C@H](C(=O)N[C@@H](CC(C)C)C(=O)N[C@@H](C)C(N)=O)C(C)C` (I: H-KWLNALLHHGLNCAKGVLA-NH2 / II: H-KWLNALLHHGLNCAKGVLA-NH2; disulfide I:13-II:13): the Drug uptake entry in the data set on Zone of skin [1], in the data set on Zone of skin [2], in the data set on Zone of skin [3] and in the data set with Zone of skin [8] was “Active” each time. Further, the outcome in the data set on Staphylococcus aureus [4] was Active. Besides, the CFU in the data set on Staphylococcus aureus [5] is reported as 3. The outcome in the data set on Staphylococcus aureus [6] was Active. The molecule further yielded an MIC with Staphylococcus aureus [7] of 4 µg/mL (≈ 0.973 µM).
